Patent US12583895B2, “Polypeptides for restoring endothelial function and methods of use thereof” (Vanderbilt University, priority 2019, dated 2026)
Entries after “also recorded” stand apart in the source; their conditions may differ. Non-standard residues stand in square brackets, D forms with d. No end group written: not given here. pS = N[C@@H](COP(=O)(O)O)C(=O)O

How the values were obtained:
rat aorta [1] = test: Endothelial-dependent relaxation of rat aorta after BzATP (ATP / P2X7R) injury, muscle bath; type: cell-based; settings: BzATP 1 mM, room temperature; for endothelial function (percent relaxation to carbachol of PE-precontracted tissue) after BzATP injury: peptide 100 and 500 μM, 1 hour
Method: Freshly isolated rat aorta was treated with 3′-O-(4-Benzoyl)benzoyl adenosine 5′-triphosphate (BzATP, 1 mM), an analogue of ATP, to induce injury in the absence or presence of NiPp (100 and 500 μM) for 1 hour at room temperature. To determine the effect of injury on endothelial function, phenylephrine (PE)-precontracted tissues were treated with carbachol (CCH; 5×10^−7 M) and the percent relaxation was determined as a change to the maximal PE-induced contraction. Data are reported as mean responses±standard deviation. n=5-6. *p<0.05, paired t-test.
Freshly isolated rat aorta was treated with 3′-O-(4-Benzoyl)benzoyl adenosine 5′-triphosphate (BzATP, 1 mM), an analogue of ATP, to induce injury in the absence or presence of NiPp, NiPp3, or scr3NiPp (A, 100 and B, 500 μM) for 1 hour at room temperature. To determine the effect of injury on endothelial function, phenylephrine (PE)-precontracted tissues were treated with escalating doses of carbachol (CCH; 10^−10 to 10^−5M) and the percent relaxation was determined as a change to the maximal PE-induced contraction. n=7. *p<0.05, two-way ANOVA with Tukey post-tests. There were significant differences between BzATP-treated vs ctrl or NiPp-treated RA.
Tissue rings were then transferred to NS and continued incubation in the absence or presence of NiPp (500 μM) for 2 h at room temperature. Control rings (Ctrl) were incubated in PL for 2.5 h. […] After treatments, RA were suspended in the muscle bath, contracted with PE and then treated with escalating doses of carbachol (CCH; 10^−8 to 10^−5M). The percent relaxation was determined as a change to the maximal PE-induced contraction. Percent relaxation to 5×10^−7 M CCH is shown. n=5-7 rats. *p<0.05 in one-way ANOVA with Tukey post-test. Data are expressed as mean±SD.
NiPp was synthesized at 3 separate times and tested in the muscle bath using rat aorta (RA). RA was either left untreated (Ctrl) or treated with BzATP (1 mM) in the absence of presence of NiPp (500 μM) in PL for 2 h at room temperature. After treatments, RA were suspended in the muscle bath, contracted with PE and then treated with escalating doses of carbachol 5×10^−7 M CCH. The percent relaxation was determined as a change to the maximal PE-induced contraction. […] Data are expressed as mean±SD.
Measurement of endothelial-dependent relaxation. […]
(§1) This produced the maximal force tension relationship as previously described. […] Contractile responses were defined by stress, calculated using force generated by tissues as follows: stress (×10^5 N/m^2)=force (g)×0.0987/area, where area=wet weight (mg)/at maximal length (mm)]/1.055.
(§2) Relaxation was calculated as percent change in stress compared to the maximal PE-induced contraction (set as 100%). […]

rat aorta [2] = test: Endothelial-dependent relaxation of rat aorta after subfailure stretch injury, muscle bath; type: cell-based; settings: stretch about 2 times resting length, peptide 500 μM, 1 hour, room temperature
Method: Freshly isolated rat aorta (RA) was subjected to subfailure stretch and incubated in PL in the absence (S) or presence of NiPp (500 μM) for 1 h at room temperature. […] The percent relaxation was determined as a change to the maximal PE-induced contraction. n=5 rats; #p<0.05, two-way ANOVA. […] Quantification of relative phosphorylation to total p38MAPK level is shown. N=10. *p<0.05, in one-way ANOVA with Tukey post-test. NiPp restores endothelial dysfunction and reduced p38 MAPK phosphorylation induced by stretch injury in RA.
Freshly isolated rat aorta was subjected to subfailure stretch (to haptic endpoint, approximately 2 times the resting length) and treated with NiPp, NiPp3, or scr3NiPp (500 μM) for 1 hour at room temperature. To determine the effect of injury on endothelial function, phenylephrine-precontracted tissues were treated with carbachol (CCH; 10^−8 to 10^−5M) and the percent relaxation was determined as a change to the maximal PE-induced contraction. Data are reported as mean responses±standard deviation. n=8. *p<0.05, two-way ANOVA with Tukey post-tests. There were significant differences between Stretch (S) vs. ctrl or NiPp-treated RA.
Measurement of endothelial-dependent relaxation. Rings of HSV or RA (1-2 mm) were suspended in a muscle bath containing a bicarbonate buffer (120 mM sodium chloride, 4.7 mM potassium chloride, 1.0 mM magnesium sulfate, 1.0 mM monosodium phosphate, 10 mM glucose, 1.5 mM calcium chloride, and 25 mM sodium bicarbonate, pH 7.4) equilibrated with 95% O2/5% CO2 at 37° C. for 1 h at a resting tension of 1 g, manually stretched to three times the resting tension, and maintained at resting tension for an additional 1 h.
as §1, §2

Row | Substance | endothelial function (percent relaxation to carbachol of PE-precontracted tissue) after BzATP injury (rat aorta [1]) | endothelial function (percent relaxation to carbachol) after subfailure stretch injury (rat aorta [2]) | endothelial function (percent relaxation to 5×10^−7 M CCH) after P2X7R activation by BzATP (rat aorta [1]; NiPp 500 μM in PL, 1 h)
1 | YARAAARQARAAGSPPLA(pS)AIARR (YARAAARQARAAGSPPLA[pS]AIARR) [scr3NiPp] | did not restore | did not restore | 
2 | YARAAARQARASPAARRA(pS)AILPG (YARAAARQARASPAARRA[pS]AILPG) [NiPp, Cell-permeant phosphopeptide mimetic of Niban: transduction domain … conjugated to the region surrounding serine 602 of Niban] | restored | restores | prevented; also recorded: restores
3 | YARAAARQARASPAARRASAILPG (not fully specified (residue 19)) [NiPp3] | did not restore | did not restore | 
